Reference: patent US20230382920A1, “SHMT Inhibitors” (The Trustees of Princeton University, priority 2020, published 2023)
Structures can show the parent of a compound that is named as a salt. Where two headings read alike, the source gives them in different places.

Test: Pharmacokinetics study of KDG-0320-0A in male CD1 mice (Example 1)
Assay type: in vivo
Conditions: for F: bioavailability vs 1 mg/kg IV; for MRT inf: read-out: MRTInf_obs
Method: A standard pharmacokinetic (PK) study of KDG-0320-0A was performed in male CD1 mice dosed with a single oral, intravenous or intraperitoneal dose of KDG-0320-0A. The parameters of the PK study are described in Table 2. Dosing solutions were freshly made prior to use. […] For IV, PO and IP, after collection, plasma samples from the same time point were pooled, and the pooled samples were analyzed by LC/MS/MS.
The desired serial concentrations of working solutions were achieved by diluting stock solution of analyte with 50% acetonitrile in water solution. 5 μL of working solutions (2, 4, 10, 20, 100, 200, 1000, 2000 ng/mL) were added to 10 μL of blank CD1 mouse plasma to achieve calibration standards of 1-1000 ng/mL (1, 2, 5, 10, 50, 100, 500, 1000 ng/mL) in a total volume of 15 μL. Four quality control (QC) samples at 2 ng/mL, 5 ng/mL, 50 ng/mL and 800 ng/mL for plasma were prepared independently of those used for the calibration curves. These QC samples were prepared on the day of analysis in the same way as calibration standards.
15 μL standards, 15 μL QC samples and 15 μL unknown samples from the blood sampling (10 μL plasma with 5 μL blank solution) were added to 200 μL of acetonitrile containing IS mixture for precipitating protein. Then, the samples were vortexed for 30 seconds. After centrifugation at 4 degrees Celsius, 4000 rpm for 15 minutes, the supernatant was diluted three times with water. 15 μL of diluted supernatant was injected into the LC/MS/MS system for quantitative analysis.
BLOQ=Below quantifiable limit of 1 ng/mL. PK parameters were estimated by non-compartmental model using WinNonlin 6.1. The PO bioavailability (F %) was calculated as following:
AUClast-PO/AUCINF-PO>80%: F=(AUCINF-PO*DoseIV)/(mean AUCINF-IV*DosePO) AUClast-PO/AUCINF-PO≤80% or AUCINF was not available: F=(AUClast-PO*DoseIV)/(mean AUClast-IV*DosePO).
The IP bioavailability (F %) was calculated as following:
AUClast-IP/AUCINF-IP>80%: F=(AUCINF-IP*DoseIV)/(mean AUCINF-IV*DoseIP) AUClast-IP/AUCINF-IP≤80% or AUCINF was not available: F=(AUClast-IP*DoseIV)/(mean AUClast-IV*DoseIP).

[1] = mouse, plasma, 1 mg/kg IV, read-out: Concentration IV_Mean
[2] = mouse, plasma, 30 mg/kg IP, read-out: Concentration IP_Mean
[3] = mouse, plasma, 50 mg/kg PO, read-out: Concentration PO_Mean

AUC_%Extrap_obs (1 mg/kg IV): 2.88% | AUClast/D (1 mg/kg IV): 155 kg·ng·h/mL/mg | Cl_obs (1 mg/kg IV): 104 mL/min/kg | Vss_obs (1 mg/kg IV): 3.96 L/kg | AUC_%Extrap_obs (30 mg/kg IP): 1.41% | AUClast/D (30 mg/kg IP): 258 kg·ng·h/mL/mg | F (30 mg/kg IP): 164% | AUC_%Extrap_obs (50 mg/kg PO): 1.77% | AUClast/D (50 mg/kg PO): 32.5 kg·ng·h/mL/mg | F (50 mg/kg PO): 20.8% | AUC(0-inf) (mouse, plasma, 1 mg/kg IV): 160 ng·h/mL | AUC(0-t) (mouse, plasma, 1 mg/kg IV): 155 ng·h/mL | C0 (mouse, plasma, 1 mg/kg IV): 575 ng/mL | half-life (mouse, plasma, 1 mg/kg IV): 1.04 h | concentration at 0.083 h (mouse, plasma, 1 mg/kg IV, 0.083 h, read-out: Concentration IV_Mean): 363 ng/mL | concentration at 0.25 h [1]: 144 ng/mL | concentration at 0.5 h [1]: 60.2 ng/mL | concentration at 1 h [1]: 25.7 ng/mL | concentration at 2 h [1]: 7.16 ng/mL | concentration at 4 h [1]: 3.07 ng/mL | MRT inf (mouse, plasma, 1 mg/kg IV): 0.632 h | AUC(0-inf) (mouse, plasma, 30 mg/kg IP): 7840 ng·h/mL | AUC(0-t) (mouse, plasma, 30 mg/kg IP): 7730 ng·h/mL | Cmax (mouse, plasma, 30 mg/kg IP): 7460 ng/mL | Tmax (mouse, plasma, 30 mg/kg IP): 0.25 h | half-life (mouse, plasma, 30 mg/kg IP): 1.66 h | concentration at 0.25 h [2]: 7460 ng/mL | concentration at 0.5 h [2]: 5240 ng/mL | concentration at 1 h [2]: 3060 ng/mL | concentration at 2 h [2]: 589 ng/mL | concentration at 4 h [2]: 211 ng/mL | concentration at 8 h (mouse, plasma, 30 mg/kg IP, 8 h, read-out: Concentration IP_Mean): 46.2 ng/mL | MRT inf (mouse, plasma, 30 mg/kg IP): 1.27 h | AUC(0-inf) (mouse, plasma, 50 mg/kg PO): 1660 ng·h/mL | AUC(0-t) (mouse, plasma, 50 mg/kg PO): 1630 ng·h/mL | Cmax (mouse, plasma, 50 mg/kg PO): 605 ng/mL | Tmax (mouse, plasma, 50 mg/kg PO): 1 h | half-life (mouse, plasma, 50 mg/kg PO): 1.28 h | concentration at 0.25 h [3]: 117 ng/mL | concentration at 0.5 h [3]: 315 ng/mL | concentration at 1 h [3]: 605 ng/mL | concentration at 2 h [3]: 411 ng/mL | concentration at 4 h [3]: 126 ng/mL | concentration at 8 h (mouse, plasma, 50 mg/kg PO, 8 h, read-out: Concentration PO_Mean): 15.8 ng/mL | MRT inf (mouse, plasma, 50 mg/kg PO): 2.3 h | Concentration IV_Mean (plasma, 1 mg/kg IV, 8 h): BLOQ
Structure (SMILES): Cc1n[nH]c2c1C(c1cc(C#C[C@H]3CC[C@H](NC(=O)OC(C)(C)C)CC3)cc(CO)c1)(C(C)C)C(C#N)=C(N)O2 (some centres unmarked) [KDG-0320, tert-butyl N-[(1r,4r)-4-[2-(3-[6-amino-5-cyano-4-isopropyl-3-methyl-1H-pyrano[2,3-c]pyrazol-4-yl]-5-(hydroxymethyl)phenyl)ethynyl]cyclohexyl]carbamate hydrochloride]
clinical symptoms (single dose 1 mg/kg IV, 50 mg/kg PO or 30 mg/kg IP, entire experiment): No abnormal clinical symptoms were observed
